Assay results published in patent publication US4880841A, “Process of producing phenethylamine derivatives” (Yamanouchi Pharmaceutical Co., Ltd., priority 1980, dated 1989).
Where two headings read alike, the source gives them in different places.

Legend:
α-adrenergic = assay: α-Adrenergic blocking action: antagonism of the hypertensive response to phenylephrine in anesthetized rats; assay type: in vivo; settings: Rattus norvegicus, iv, read-out: α-blocking activity (rat) ED50 (mg/kg) i.v.
Method: (§1) The pharmacological effects of the compounds of this invention were determined by the following experiments. The effects of the typical compounds of this invention were compared with those of 5-{1-hydroxy-2-[2-(2-methoxyphenoxy)ethylamino]ethyl}-2-methylbenzenesulfonamide (referred to as "Compound A") which is one of the typical compounds disclosed in British Pat. No. 2,006,772 and phentolamine.
A. α-Adrenergic blocking action:
The blood pressure was measured in the rats anesthetized with urethane and treated with pentolinium. The effects of the test samples (intravenous injection) to antagonize the hypertensive response to phenylephrine (10 μg/Kg i.v.) were measured and the results were shown in Table I.

[1] = Antihypertensive effects in spontaneously hypertensive rats (oral administration, tail cuff method); assay type: in vivo; settings: 30 mg/kg P.O., spontaneously hypertensive rats with systolic blood pressure higher than 150 mmHg
Method: as §1
B. Antihypertensive effects in spontaneously hypertensive rats:
Oral administration:--The systolic blood pressure was measured indirectly by the tail cuff method using a programmed electrosphygmanometer (Nacro-Bio-Systems Inc., PE-300) on spontaneously hypertensive rats having the systolic blood pressure of higher than 150 mmHg, the results being shown in Table II.

[2] = rats anesthetized with urethane and treated with pentolinium, i.v. test sample, phenylephrine 10 μg/Kg i.v.

| Compound | ED50 (α-adrenergic; [2]) [mg/kg] | change in systolic blood pressure (mm Hg) at stated dose P.O. [1] [mm Hg] | ED50 (α-adrenergic) [mg/kg] |
| --- | --- | --- | --- |
| COc1ccccc1OCCNCC(O)c1ccc(C)c(S(N)(=O)=O)c1 (stereo not shown) [Compound A, 5-{1-hydroxy-2-[2-(2-methoxyphenoxy)ethylamino]ethyl}-2-methylbenzenesulfonamide, reference compound] | 0.032 | -30 |  |
| COc1ccccc1OCCNCC(O)c1ccc(C)c([S+](C)[O-])c1.O=C(O)C(=O)O (stereo not drawn) [Example 5, α-{[2-(2-Methoxyphenoxy)ethylamino]methyl}-4-methyl-3-methylsulfinylbenzenemethanol oxalate] | 0.045 | -60 |  |
| CCOc1ccccc1OCCNC(C)Cc1ccc(OC)c(SC)c1.Cl (stereo not shown) [Example 8, 4-{2-[2-(2-Ethoxyphenoxy)ethylamino]-2-methylethyl}-2-(methylthio)anisole hydrochloride] |  | -48 | 0.0019 |
| CCOc1ccccc1OCCNC(C)Cc1ccc(OC)c(S(C)(=O)=O)c1.Cl (stereo not shown) [Example 12, 4-{2-[2-(2-Ethoxyphenoxy)ethylamino]-2-methylethyl}-2-(methylsulfonyl)anisole hydrochloride] |  | -58 | 0.00014 |
| Cc1ccc(N(CC2=NCCN2)c2cccc(O)c2)cc1 [phentolamine, reference compound] | 0.061 | -53 |  |
